Data published in patent publication US20100022584A1, “Modulation of Glutamine Synthetase Activity” (priority 2006, published 2010).

Target: T1, adenylylated WT enzyme, WT (AD) glutamine synthetase (Escherichia coli, UniProt P0A9C5)
T1 construct: made in house; host or cells: E. coli carrying pBSK-ECgln (pBluescript II SK+), continuous culture; YMC11 is the expression strain named for this plasmid
T1 sequence (P0A9C5 2-469 limits assumed): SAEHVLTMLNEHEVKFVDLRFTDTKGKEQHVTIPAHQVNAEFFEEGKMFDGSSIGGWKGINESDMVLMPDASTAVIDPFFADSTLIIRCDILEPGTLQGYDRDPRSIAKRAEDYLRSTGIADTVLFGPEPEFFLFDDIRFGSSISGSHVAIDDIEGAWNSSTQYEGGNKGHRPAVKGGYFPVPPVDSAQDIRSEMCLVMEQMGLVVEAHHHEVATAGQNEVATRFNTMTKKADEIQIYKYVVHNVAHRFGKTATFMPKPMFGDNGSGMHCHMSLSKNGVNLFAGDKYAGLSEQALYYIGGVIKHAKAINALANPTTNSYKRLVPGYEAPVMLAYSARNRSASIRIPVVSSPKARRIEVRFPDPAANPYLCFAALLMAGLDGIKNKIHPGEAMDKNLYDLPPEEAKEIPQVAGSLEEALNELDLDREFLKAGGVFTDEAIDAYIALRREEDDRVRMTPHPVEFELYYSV
Test: HPLC forward-reaction glutamine synthetase assay with serine protease inhibitors
Assay type: biochemical, E. coli
Conditions: 1 mM inhibitor; for % Reduction in ADP-based Specific Activity / % Reduction in Glutamine-based Specific Activity / % Conversion: WT (AD); for % Reduction in ADP-based Specific Activity / % Reduction in Glutamine-based Specific Activity: 60 min pre-incubation, vs no-inhibitor control, positive = activity increased; for % Conversion: glutamine-based divided by ADP-based specific activity; for inhibition of the enzyme (in words): adenylylated WT enzyme, HPLC assays

Compound	% Reduction in ADP-based Specific Activity (Mg assay)	% Reduction in Glutamine-based Specific Activity (Mg assay) [%]	% Conversion (Mg assay) [%]	% Reduction in ADP-based Specific Activity (Mn assay) [%]	% Reduction in Glutamine-based Specific Activity (Mn assay) [%]	% Conversion (Mn assay) [%]	inhibition of the enzyme (in words)
O=S(=O)(F)Cc1ccccc1 [PMSF]	+48.13%	−46.33	42	−15.63	−49.20	61	found to inhibit
NCCc1ccc(S(=O)(=O)F)cc1 [AEBSF]	−34.60%	−24.59	134	−26.76	−14.86	118	appeared to cause inhibition
